Columns and labels:
[1] = tested on: mitochondrial respiration; assay: Inhibition of mitochondrial respiration (rate of reduction of cytochrome c in isolated mitochondria), yeast; assay type: biochemical, Saccharomyces cerevisiae; details: DMSO control
Excerpt: In order to determine the effect of the compounds according to the invention on mitochondrial respiration it is first necessary to isolate the mitochondria from the organisms being investigated. For this, in the case of the yeast Saccharomyces cerevisiae, the cells in a 30 to 40% strength suspension of the yeast in an aqueous solution of 0.6M mannitol+0.01M tris[hydroxymethyl]-aminomethane+0.002M disodium ethylenediaminetetraacetate (pH 6.8) are disrupted in a glass bead mill, and the extract is fractionated by differential centrifugation at 1000× g and 12000× g. The mitochondria are in the pellet from the 12000× g centrifugation.
(§1) Used as control is a mixture with the equivalent amount of pure DMSO. The inhibition at the concentration of agent in each case is then calculated as follows [formula] where ΔE is the change in extinction, at is the change in time, [formula] is the reaction rate for the control and [formula] is the reaction rate for the sample x.
(§2) The inhibition was determined in each case at a test substance concentration of 1.8/10^-5mol/l .

[2] = tested on: mitochondrial respiration; assay: Inhibition of mitochondrial respiration (rate of reduction of cytochrome c in isolated mitochondria), house fly; assay type: biochemical, Musca domestica; details: DMSO control
Excerpt: It is also possible similarly to isolate mitochondria from other organisms, e.g. from the phytopathogenic fungus Drechslera sorokiniana (synonym: Helminthosporium sativum), from the dermatophyte Trichophyton mentagrophytes, which is a human pathogen, and, for example, from the house fly (Musca domestica) as insect or from the spider mite Tetranychus urticae.
as §1, §2

| Structure (SMILES) | % inhibition of respiration at 1.8 × 10^-5 mol/l test substance, Saccharomyces cerevisiae [1] [%] | % inhibition of respiration at 1.8 × 10^-5 mol/l test substance, Musca domestica [2] [%] |
| --- | --- | --- |
| COC(=O)/C=C(/OC)c1ccccc1C [Compound 1.1, methyl (E)-β-methoxy-2-methylcinnamate] | 23 | – |
| COC(=O)/C=C(/OC)c1ccccc1OCc1csc(-c2ccc(F)cc2)n1 [Compound 1.71, methyl (E)-β-methoxy-2-[2-(4-fluorophenyl)-4-thiazolylmethyloxy]cinnamate] | 30 | 18 |
| COC(=O)/C=C(/OC)c1ccccc1Oc1cccc(C)c1 [Compound 1.90, methyl (E)-β-methoxy-2-(3-methylphenoxy)cinnamate] | 85 | – |
| COC(=O)/C=C(\OC)c1ccccc1Oc1cccc(C)c1 [Compound 1.91, methyl (Z)-β-methoxy-2-(3-methylphenoxy)cinnamate] | 22 | – |
| COC(=O)/C=C(\C)c1ccccc1CBr [Compound 1.167, methyl (E)-β-methyl-2-bromomethylcinnamate] | 99 | – |
| CCCCOc1ccc(OCc2ccccc2/C(=C\C(=O)OC)OC)cc1 [Compound 1a.37] | 98 | – |
| CCOC(=O)/C=C(/OC)c1ccccc1COc1ccc(/C(C)=N/OC)cc1C [Compound 1a.74, ethyl (E)-β-methoxy-2-[2-methyl-4-(1-methoximinoethyl)phenoxymethyl]cinnamate] | 99 | – |
| CCCOC(=O)/C=C(/OC)c1ccccc1COc1ccc(C(C)=NOC)cc1C [Compound 1a.75] | 70 | – |
| CCCCOC(=O)/C=C(/OC)c1ccccc1COc1ccc(C(C)=NOC)cc1C [Compound 1a.77] | 63 | – |
| CO/N=C(\C)c1ccc(OCc2ccccc2/C(=C\C(=O)ON=C(C)C)OC)c(C)c1 [Compound 1a.82] | 94 | – |
| C=CCOC(=O)/C=C(/OC)c1ccccc1COc1ccc(C(C)=NOC)cc1C [Compound 1a.83] | 78 | – |
| C#CCOC(=O)/C=C(/OC)c1ccccc1COc1ccc(C(C)=NOC)cc1C [Compound 1a.84] | 98 | – |
| CON=C(C)c1ccc(OCc2ccccc2/C(=C\C(=O)SC)OC)c(C)c1 [Compound 1a.86] | 97 | – |
| CO/N=C(\C)c1ccc(OCc2ccccc2/C(=C\C(N)=O)OC)c(C)c1 [Compound 1a.88, (E)-β-methoxy-2-[2-methyl-4-(1-methoximinoethyl)phenoxymethyl]cinnamide] | 99 | – |
| CNC(=O)/C=C(/OC)c1ccccc1COc1ccc(C(C)=NOC)cc1C [Compound 1a.89] | 99 | – |
| CCNC(=O)/C=C(/OC)c1ccccc1COc1ccc(C(C)=NOC)cc1C [Compound 1a.91] | 99 | – |
| CON=C(C)c1ccc(OCc2ccccc2/C(=C\C(=O)N(C)C)OC)c(C)c1 [Compound 1a.98] | 100 | – |
| CCCCN(C)C(=O)/C=C(/OC)c1ccccc1COc1ccc(C(C)=NOC)cc1C [Compound 1a.101] | 69 | – |
| COC(=O)/C=C(/C)c1ccccc1COc1ccccc1C [Compound 1a.108, methyl (Z)-β-methyl-2-(2-methylphenoxymethyl)cinnamate] | 98 | – |
| COC(=O)/C=C(\C)c1ccccc1COc1ccccc1C [Compound 1a.109, methyl (E)-β-methyl-2-(2-methylphenoxymethyl)cinnamate] | 31 | – |

| Structure (SMILES) | % inhibition of respiration at 1.8 × 10^-5 mol/l test substance, Saccharomyces cerevisiae [1] [%] | % inhibition of respiration at 1.8 × 10^-5 mol/l test substance, Musca domestica [2] [%] |
| --- | --- | --- |
| CO/N=C(\C)c1ccc(OCc2ccccc2/C(C)=C\C(=O)OC)c(C)c1 [Compound 1a.112, methyl (Z)-β-methyl-2-[2-methyl-4-(1-(E)-methoximinoethyl)phenoxy]methylcinnamate] | 99 | – |
| CO/N=C(\C)c1ccc(OCc2ccccc2/C(C)=C/C(=O)OC)c(C)c1 [Compound 1a.113, methyl (E)-β-methyl-2-[2-methyl-4-(1-(E)-methoximinoethyl)phenoxy]methylcinnamate] | 80 | – |
| COC(=O)/C=C(/OC)c1ccccc1CSc1nc(-c2ccccc2)cs1 [Compound 1a.162] | 76 | – |
| COC(=O)/C=C(/OC)c1ccccc1/C=C/c1ccccc1 [Compound 1a.233] | 88 | 89 |
| COC(=O)/C=C(/OC)c1ccccc1/C=C/c1ccccc1C [Compound 1a.247] | 99 | – |
| COC(=O)/C=C(/OC)c1ccccc1/C=C/c1ccc(C)cc1 [Compound 1a.250] | 99 | – |
| COC(=O)/C=C(/OC)c1ccccc1/C=C\c1ccc(C)cc1 [Compound 1a.251] | 54 | – |
| COC(=O)/C=C(/OC)c1ccccc1/C=C/c1ccc(OCc2ccccc2)cc1 [Compound 1a.264, methyl 2-[2-(4-benzyloxyphenyl)-(E)-ethenyl]-(E)-β-methoxycinnamate] | 98 | – |
| COC(=O)/C=C(/OC)c1ccccc1/C=C/c1nnc(-c2ccccc2)s1 [Compound 1a.308] | 99 | – |
| COC(=O)/C=C(/OC)c1ccccc1/C=C/c1cnn(-c2cccc(Cl)c2)c1 [Compound 1a.316] | 98 | – |
| COC(=O)/C=C(/OC)c1ccccc1/C=C\c1cnn(-c2cccc(Cl)c2)c1 [Compound 1a.317] | 29 | – |
| COC(=O)/C=C(/OC)c1ccccc1/C=C\c1cnn(-c2ccc(OC)cc2)c1 [Compound 1a.319] | 11 | – |
| COC(=O)/C=C(/OC)c1ccccc1/C=C/c1cnn(-c2ccc(Cl)cc2)c1 [Compound 1a.320] | 98 | – |
| COC(=O)/C=C(/OC)c1ccccc1/C=C/c1noc(-c2ccc(Cl)cc2)c1C [Compound 1a.322] | 99 | – |
| COC(=O)/C=C(/OC)c1ccccc1/C=C/c1cc(CC(C)C)no1 [Compound 1a.324] | 99 | – |
| COC(=O)/C=C(/OC)c1ccccc1/C=C/C1CCCOC1 (centres unmarked) [Compound 1a.329] | 9 | – |
| COC(=O)/C=C(/OC)c1ccccc1/C=C/C1CCOC(c2ccccc2)C1 (centres unmarked) [Compound 1a.331] | 79 | – |
| COC(=O)/C=C(/OC)c1ccccc1/C=C/C1CCOC(C2CCCOC2)C1 (centres unmarked) [Compound 1a.333] | 20 | – |
| COC(=O)/C=C(/OC)c1ccccc1CON=C(c1ccccc1)c1ccc(Cl)cc1 [Compound 1a.358] | 99 | – |
